Source: the supplement of paper PMC10307832

Key:
Experiment in all cases: relative viability (nuclei count vs DMSO), 5 days (fraction); higher = more cells survive
Daporinad + OSI-027 = compound: O=C(/C=C/c1cccnc1)NCCCCC1CCN(C(=O)c2ccccc2)CC1 [Daporinad] + COc1cccc2cc(-c3nc([C@H]4CC[C@H](C(=O)O)CC4)n4ncnc(N)c34)[nH]c12 [OSI-027] (partner 0.5 µM)
Summary of the method: (§1)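 After 5 days of treatment, lung cancer cells in 1536-well plates were fixed and stained in a single step (final 0.05% Triton X-100, 1% formaldehyde, 1 ug/ml Hoechst) and their nuclei counted on 4× images. Treatment had been applied by pin tool the day after seeding as one drug alone or as a fixed anchor-drug dose with five library-drug doses (not always all listed) in √10 steps. Relative viability is the nuclei count of treated wells divided by that of vehicle wells, and values are medians of duplicate plates.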

Daporinad + Olaparib = compound: O=C(/C=C/c1cccnc1)NCCCCC1CCN(C(=O)c2ccccc2)CC1 [Daporinad] + O=C(c1cc(Cc2n[nH]c(=O)c3ccccc23)ccc1F)N1CCN(C(=O)C2CC2)CC1 [Olaparib] (partner 8 µM)
Summary of the method: as §1

Daporinad + Decitabine = compound: O=C(/C=C/c1cccnc1)NCCCCC1CCN(C(=O)c2ccccc2)CC1 [Daporinad] + Nc1ncn([C@H]2C[C@H](O)[C@@H](CO)O2)c(=O)n1 [Decitabine] (partner 2 µM)
Summary of the method: as §1

R406 + Pemetrexed = compound: COc1cc(Nc2ncc(F)c(Nc3ccc4c(n3)NC(=O)C(C)(C)O4)n2)cc(OC)c1OC [R406] + Nc1nc2[nH]cc(CCc3ccc(C(=O)N[C@@H](CCC(=O)O)C(=O)O)cc3)c2c(=O)[nH]1 [Pemetrexed] (partner 0.2 µM)
Summary of the method: as §1

Row | Cell Line | relative viability (Daporinad + OSI-027; first compound 0.0005 µM) | relative viability (Daporinad + OSI-027; first compound 0.001581 µM) | relative viability (Daporinad + OSI-027; first compound 0.005 µM) | relative viability (Daporinad + OSI-027; first compound 0.01581 µM) | relative viability (Daporinad + Olaparib; first compound 0.0005 µM) | relative viability (Daporinad + Olaparib; first compound 0.001581 µM) | relative viability (Daporinad + Olaparib; first compound 0.005 µM) | relative viability (Daporinad + Olaparib; first compound 0.01581 µM) | relative viability (Daporinad + Decitabine; first compound 0.0005 µM) | relative viability (Daporinad + Decitabine; first compound 0.001581 µM) | relative viability (Daporinad + Decitabine; first compound 0.005 µM) | relative viability (Daporinad + Decitabine; first compound 0.01581 µM) | relative viability (R406 + Pemetrexed; first compound 0.08 µM) | relative viability (R406 + Pemetrexed; first compound 0.253 µM) | relative viability (R406 + Pemetrexed; first compound 0.8 µM) | relative viability (R406 + Pemetrexed; first compound 2.53 µM) | relative viability (R406 + Pemetrexed; first compound 8 µM)
1 | HOP-62 | 0.812 | 0.935 | 0.877 | 0.665 | 0.258 | 0.287 | 0.188 | 0.15 | 0.176 | 0.209 | 0.208 | 0.179 | 0.315 | 0.348 | 0.297 | 0.412 | 0.344
2 | NCI-H596 | 0.553 | 0.674 | 0.758 | 0.656 | 0.647 | 0.562 | 0.542 | 0.441 | 0.982 | 1 | 0.912 | 0.636 | 0.527 | 0.554 | 0.428 | 0.392 | 0.324
3 | NCI-H1755 | 0.628 | 0.758 | 0.761 | 0.778 | 0.838 | 0.891 | 0.84 | 0.843 | 0.747 | 0.716 | 0.713 | 0.652 | 0.474 | 0.419 | 0.426 | 0.385 | 0.33
4 | NCI-H2023 | 0.35 | 0.458 | 0.395 | 0.455 | 0.51 | 0.497 | 0.414 | 0.277 | 0.208 | 0.247 | 0.247 | 0.232 | 0.216 | 0.223 | 0.199 | 0.19 | 0.124
5 | NCI-H2009 | 0.599 | 0.739 | 0.614 | 0.381 | 0.596 | 0.58 | 0.268 | 0.219 | 0.356 | 0.395 | 0.381 | 0.372 | 0.969 | 1.09 | 1.05 | 0.979 | 0.946
